Results published in patent EP0125695B1, “2-Bromo-1-tetralone derivatives” (KIRIN BEER KABUSHIKI KAISHA, priority 1983, dated 1984).
In brackets after ≈: the same amount, converted by molar mass.

How the values were obtained:
[1] = system: P388 leukemia; experiment: Antitumor activity against intraperitoneally transplanted P388 leukemia in mice; format: in vivo; conditions: given 1 day and 5 days after transplantation of P388 leukemia 1 x 10^6 cells/mouse i.p., survival days of saline control group = 100
Method: For example, into CDF, mice were intraperitoneally transplanted P388 leukemia 1 x 10^6 cells/mouse as a suspension, and 2-bromo-6,7-dichloro-1-tetralone which is typical of the compounds of the present invention was administered to the mice 1 day and 5 days respectively after the transplantation. The effect of the test compound was evaluated in terms of the increase of life span (%) as calculated by determining the survival days of the control group consisting of mice administered with physiological saline solution as 100.

[2] = system: Candida albicans; experiment: Minimum inhibitory concentration on Sabouraud's agar medium (Yamano et al. method); format: cell-based; conditions: 168 h, agar plate, 27°C for 7 days
Method: (§1) Sabouraud's agar medium was used as a culture medium. (A liquid culture medium was prepared from the same ingredients except for agar).
(§2) This culture medium was prepared by dissolving the above ingredients under heat, and the medium thus prepared was sterilized under the conditions of 1.05 bar (15 Ibs.lin^2) for 15 minutes.
(§3) The microorganisms to be tested were fungi of the species Trichophyton mentagrophytes (A), Trichophyton asteroides (B) and Candida a/bicans (C). Each of these microorganisms was cultivated on the corresponding slant medium at 27°C for 7 days. A loopful of each of the microorganisms (A), (B) and (C) was triturated in a mortar, charged into a test tube containing 10 ml of physiological saline solution, and suspended therein with a thermomixer. Each of the suspensions thus prepared was used in the test.
(§4) 9 ml of the culture medium and 1 ml of a dilute sample were thoroughly admixed with each other in a Petri dish to prepare an agar plate, which was then streaked with the suspension containing each of the microorganisms to be tested by using a sterile platinum wire loop. The microorganisms (A), (B) and (C) thus inoculated on the agar plates were cultivated at 27°C for 7 days, and thereafter the MIC thereof was determined.

[3] = system: Trichophyton asteroides; experiment: as above; format: cell-based; conditions: 168 h, agar plate, 27°C for 7 days
Method: as §1, §2, §3, §4

[4] = system: Trichophyton mentagrophytes; experiment: as above; format: cell-based; conditions: 168 h, agar plate, 27°C for 7 days
Method: as §1, §2, §3, §4

[5] = Toxicity (LD50) to mice; conditions: mouse, in vivo

| Structure (SMILES) | Survival time relative to saline control (T/C, control = 100) ([1]; Dose 10.0 mg/kg/day) [%] | Survival time relative to saline control (T/C, control = 100) ([1]; Dose 50.0 mg/kg/day) [%] | MIC [2] [µg/mL] | MIC [3] [µg/mL] | MIC [4] [µg/mL] | LD50 ([5]; Oral) [mg/kg] | LD50 ([5]; ip, Intraperitoneal) [mg/kg] | LD50 ([5]; sc, Subcutaneous) [mg/kg] |
| --- | --- | --- | --- | --- | --- | --- | --- | --- |
| O=C1c2cc(Cl)c(Cl)cc2CCC1Br (centres unmarked) [2-bromo-6,7-dichloro-1-tetralone] | 129 | 140 | 1.56 (≈ 5.31 µM) | 0.78 to 1.56 (≈ 2.65 to 5.31 µM) | 0.78 (≈ 2.65 µM) | > 1500 | 820 | > 1500 |
| O=C1c2cc(F)ccc2CCC1Br (centres unmarked) [2-bromo-7-fluoro-1-tetralone] | – | – | 6.25 (≈ 25.7 µM) | 3.13 (≈ 12.9 µM) | 3.13 (≈ 12.9 µM) | – | – | – |
| COC1=CC(=O)C[C@@H](C)[C@]12Oc1c(Cl)c(OC)cc(OC)c1C2=O [griseofulvin, reference compound] | – | – | > 200 | 6.25 (≈ 17.7 µM) | 6.25 (≈ 17.7 µM) | – | – | – |
| O=C1c2cc(Cl)cc(Cl)c2CCC1Br (centres unmarked) [2-bromo-5,7-dichloro-1-tetralone] | – | – | 1.56 (≈ 5.31 µM) | 1.56 (≈ 5.31 µM) | 1.56 (≈ 5.31 µM) | – | – | – |
